The text below walks through data of patent publication US8961937B2 (Korea Atomic Energy Research Institute, priority 2012, dated 2015).

Data set [1] concerns the target T1, Aβ40 aggregates (Homo sapiens, UniProt P05067).
T1 construct: agglomerated Aβ40 peptide (10 μM, 35° C., agglomerated in PBS buffer for 3 days.)
Nature of the data set: In vitro fluorescence measurement before and after mixing with agglomerated Aβ40 peptide. It counts as binding. Particulars: for λem: emission wavelength; for λem / λex: 10 μM in PBS; for λex: excitation wavelength; for Fold Increase (FAβ/F0): fluorescence emission intensity at λem, 10 μM compound and 10 μM Aβ40 aggregates.

In data set [2] the target is T1, Aβ40 aggregates. Put plainly: Apparent binding constant (Kd) by fluorescence titration with aggregated Aβ40 peptide. The settings on record: 10 μM aggregated Aβ40 peptide, PBS, N = 3; read-out: Kd (mean ± SD). The procedure: Apparent binding constants (Kd) of the nine compounds were measured by using 10 μM aggregated Aβ40 peptide. Fluorescence intensity of respective probes of […], 0.5, 1, […], 5, and 10 μM dissolved in PBS and fluorescence intensity of a mixture with aggregates Aβ peptide were measured. […] Theoretically, a preferable fluorescence probe for Aβ aggregates should have high fluorescence reactivity and binding affinity.

T1 sequence (P05067 672-711 limits assumed): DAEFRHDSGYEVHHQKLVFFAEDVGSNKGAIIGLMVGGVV

As for `O=c1c(Cl)c(Cl)cnn1/C=C/c1ccccc1` [Compound 1, trans-4,5-dichloro-2-styrylpyridazine-3(2H)-one], at Aβ40 aggregates [1], the λem worked out at 496 nm, the λex was found to be 350 nm and the “Fold Increase (FAβ/F0)” value was 4.72.
With `O=c1c(Cl)c(Cl)cnn1/C=C/c1ccc(F)cc1` [Compound 2, (E)-4,5-dichloro-2-(4-fluorostyryl)pyridazine-3(2H)-one], at Aβ40 aggregates [1], the λem is 492 nm, the λex is listed as 350 nm and the “Fold Increase (FAβ/F0)” value was found to be 5.93.
The like results for `O=c1c(Cl)c(Cl)cnn1/C=C/c1ccc(Cl)cc1` [Compound 3, (E)-4,5-dichloro-2-(4-chlorostyryl)pyridazine-3(2H)-one] were, in that order, 495 nm, 380 nm and 3.03.
The like results for `O=c1c(Cl)c(Cl)cnn1/C=C/c1ccc(Br)cc1` [Compound 4, (E)-2-(4-bromostyryl)-4,5-dichloropyridazine-3(2H)-one] were, in that order, 495 nm, 370 nm and 2.12.
For the compound `O=c1c(Cl)c(Cl)cnn1/C=C/c1ccc(I)cc1` [Compound 5, (E)-4,5-dichloro-2-(4-Iodostyryl)pyridazine-3(2H)-one], on Aβ40 aggregates [1], the λem turned out to be 498 nm, the λex is 380 nm and the “Fold Increase (FAβ/F0)” value is 5.26.
The like results for `N#Cc1ccc(/C=C/n2ncc(Cl)c(Cl)c2=O)cc1` [Compound 6, (E)-2-(4-cyanostyryl)-4,5-dichloropyridazine-3(2H)-one] were, in that order, 486 nm, 380 nm and 2.94.
With `COC(=O)c1ccc(/C=C/n2ncc(Cl)c(Cl)c2=O)cc1` [Compound 7, (E)-4,5-dichloro-2-(4-methoxycarbonylstyryl)pyridazine-3(2H)-one], at Aβ40 aggregates [1], the λem amounted to 488 nm, the λex amounted to 370 nm and the “Fold Increase (FAβ/F0)” value is reported as 2.07.
Turning to `O=c1c(Cl)c(Cl)cnn1/C=C/c1ccccc1[N+](=O)[O-]` [Compound 8, (E)-4,5-dichloro-2-(2-nitrostyryl)pyridazine-3(2H)-one], on Aβ40 aggregates [1], the λem worked out at 500 nm, the λex was 370 nm and the “Fold Increase (FAβ/F0)” value is recorded as 4.12.
For the compound `O=c1c(Cl)c(Cl)cnn1/C=C/c1cccc([N+](=O)[O-])c1` [Compound 9, (E)-4,5-dichloro-2-(3-nitrostyryl)pyridazine-3(2H)-one], on Aβ40 aggregates [1], the λem was 485 nm, the λex was 390 nm and the “Fold Increase (FAβ/F0)” value was found to be 2.12.
The like results for `O=c1c(Cl)c(Cl)cnn1/C=C/c1ccc([N+](=O)[O-])cc1` [Compound 10, (E)-4,5-dichloro-2-(4-nitrostyryl)pyridazine-3(2H)-one] were, in that order, 515 nm, 390 nm and 2.24.
The like results for `Cc1ccc(/C=C/n2ncc(Cl)c(Cl)c2=O)cc1` [Compound 11, (E)-4,5-dichloro-2-(4-methylstyryl)pyridazine-3(2H)-one] were, in that order, 516 nm, 350 nm and 2.81.
Take `O=c1c(Cl)c(Cl)cnn1/C=C/c1ccc(-c2ccccc2)cc1` [Compound 12, (E)-2-(2-(biphenyl-4-yl)vinyl)-4,5-dichloropyridazine-3(2H)-one]: at Aβ40 aggregates [1], the λem turned out to be 514 nm, the λex is on record as 380 nm and the “Fold Increase (FAβ/F0)” value came out at 1.92.
The like results for `O=c1c(Cl)c(Cl)cnn1/C=C/c1ccc(/C=C/c2ccccc2)cc1` [Compound 13, 4,5-dichloro-2-((E)-4-(E)-styrylstyryl)pyridazine-3(2H)-one] were, in that order, 510 nm, 380 nm and 2.04.
For `Nc1ccc(/C=C/n2ncc(Cl)c(Cl)c2=O)cc1` [Compound 15, (E)-4,5-dichloro-2-(4-aminostyryl)pyridazine-3(2H)-one], on Aβ40 aggregates [2], the Kd amounted to 2.95 ± 1.15 µM. In addition, at Aβ40 aggregates [1], the λem was determined as 598 nm, the λex stood at 400 nm and the “Fold Increase (FAβ/F0)” value was 12.15.
In the case of `COc1ccccc1/C=C/n1ncc(Cl)c(Cl)c1=O` [Compound 16, (E)-4,5-dichloro-2-(2-methoxystyryl)pyridazine-3(2H)-one], at Aβ40 aggregates [1], the λem stood at 492 nm, the λex was determined as 380 nm and the “Fold Increase (FAβ/F0)” value was determined as 8.24.
Consider `COc1cccc(/C=C/n2ncc(Cl)c(Cl)c2=O)c1` [Compound 17, (E)-4,5-dichloro-2-(3-methoxystyryl)pyridazine-3(2H)-one], for which the Kd on Aβ40 aggregates [2] was found to be 3.48 ± 1.14 µM. In addition, at Aβ40 aggregates [1], the λem amounted to 492 nm, the λex stood at 350 nm and the “Fold Increase (FAβ/F0)” value worked out at 11.13.
The like results for `COc1ccc(/C=C/n2ncc(Cl)c(Cl)c2=O)cc1` [Compound 18, (E)-4,5-dichloro-2-(4-methoxystyryl)pyridazine-3(2H)-one] were, in that order, 2.57 ± 0.54 µM, 532 nm, 400 nm and 19.81.
The like results for `COc1cccc(/C=C/n2ncc(Cl)c(Cl)c2=O)c1OC` [Compound 19, (E)-4,5-dichloro-2-(2,3-dimethoxystyryl)pyridazine-3(2H)-one] were, in that order, 8.52 ± 2.48 µM, 504 nm, 350 nm and 15.35.
Regarding `COc1ccc(/C=C/n2ncc(Cl)c(Cl)c2=O)c(OC)c1` [Compound 20, (E)-4,5-dichloro-2-(2,4-dimethoxystyryl)pyridazine-3(2H)-one], on Aβ40 aggregates [2], the Kd is 5.03 ± 3.48 µM. Besides, at Aβ40 aggregates [1], the λem turned out to be 554 nm, the λex was 400 nm and the “Fold Increase (FAβ/F0)” value came out at 11.52.
As to `COc1ccc(OC)c(/C=C/n2ncc(Cl)c(Cl)c2=O)c1` [Compound 21, (E)-4,5-dichloro-2-(2,5-dimethoxystyryl)pyridazine-3(2H)-one], on Aβ40 aggregates [1], the λem is reported as 512 nm, the λex stood at 370 nm and the “Fold Increase (FAβ/F0)” value is reported as 3.42.
The like results for `COc1cccc(OC)c1/C=C/n1ncc(Cl)c(Cl)c1=O` [Compound 22, (E)-4,5-dichloro-2-(2,6-dimethoxystyryl)pyridazine-3(2H)-one] were, in that order, 545 nm, 350 nm and 4.53.
The like results for `COc1ccc(/C=C/n2ncc(Cl)c(Cl)c2=O)cc1OC` [Compound 23, (E)-4,5-dichloro-2-(3,4-dimethoxystyryl)pyridazine-3(2H)-one] were, in that order, 552 nm, 350 nm and 3.52.
The like results for `COc1cc(/C=C/n2ncc(Cl)c(Cl)c2=O)cc(OC)c1` [Compound 24, (E)-4,5-dichloro-2-(3,5-dimethoxystyryl)pyridazine-3(2H)-one] were, in that order, 492 nm, 350 nm and 5.37.
Take `COc1ccc(/C=C/n2ncc(Cl)c(Cl)c2=O)c(OC)c1OC` [Compound 25, (E)-4,5-dichloro-2-(2,3,4-trimethoxystyryl)pyridazine-3(2H)-one]: the Kd at Aβ40 aggregates [2] was 4.24 ± 0.98 µM. Besides, at Aβ40 aggregates [1], the λem was 536 nm, the λex is reported as 390 nm and the “Fold Increase (FAβ/F0)” value is 26.81.
Regarding `COc1cc(OC)c(OC)cc1/C=C/n1ncc(Cl)c(Cl)c1=O` [Compound 26, (E)-4,5-dichloro-2-(2,4,5-trimethoxystyryl)pyridazine-3(2H)-one], on Aβ40 aggregates [1], the λem is 542 nm, the λex was 350 nm and the “Fold Increase (FAβ/F0)” value is listed as 3.95.
For the compound `COc1cc(OC)c(/C=C/n2ncc(Cl)c(Cl)c2=O)c(OC)c1` [Compound 27, (E)-4,5-dichloro-2-(2,4,6-trimethoxystyryl)pyridazine-3(2H)-one], at Aβ40 aggregates [2], the Kd came to 17.5 ± 2.49 µM. For the same compound, at Aβ40 aggregates [1], the λem came out at 560 nm, the λex is recorded as 430 nm and the “Fold Increase (FAβ/F0)” value was 11.72.
The like results for `COc1cc(/C=C/n2ncc(Cl)c(Cl)c2=O)cc(OC)c1OC` [Compound 28] were, in that order, 4.14 ± 1.94 µM, 580 nm, 390 nm and 26.12.
